“Also recorded” adds a separate entry of the source.
Columns and labels:
[1] = test system: CD8+ T cells from HLA-A2+ healthy donors; test: Priming of naive CTLs, in vitro immunogenicity assay, tetramer staining; assay type: cell-based, human; settings: for expansion of specific CD8+ T cells (tetramer positive): one donor, versus co-culture without peptides; for specific CD8+ T expansions (immunogenicity): total of 6 donors, FIG. 11A
Description: Priming of naïve CTLs. PBMCs were obtained by Ficoll gradient separation from HLA-A2+ healthy blood donors. CD14+, CD4+ and CD8+ cells were purified by positive selection using magnetic beads (Miltenyi Biotec). While CD4+ and CD8+ T cells were cryopreserved until the experiment day, CD14+ fraction was cultured in the presence of IL-4 (50 ng/ml) and GM-CSF (10 ng/mL) at 10^6 cells/mL during 5 days to obtain moDCs. After this period of time, the moDCs were maturated with LPS and incubated with synthetic ER-derived peptides at a final concentration of 1 μg/mL for 2 hours. Finally, peptide-loaded moDCs were co-cultured with autologous CD4+ and CD8+ T cells in culture medium supplemented with IL-2 (10U/ml) and IL-7 (100 ng/ml). The ER-derived peptide stimulation of specific CD8+ CTL populations was assessed by MHC-I tetramer staining by flow cytometry using a combination of two-color tetramer for each peptide.
(§1) Tetramer Staining. Cells were resuspended in PBS, stained with Live/Dead Aqua-405 nm (ThermoFisher) during 20 minutes at 4° C. and washed once. After that, cells were resuspended in PBS-1% BSA containing the mix of SA-coupled tetramers and incubated in the dark at room temperature during 20 minutes. Without further washing, surface antibodies were added in PBS-1% BSA and cells were incubated 20 minutes in the dark at 4° C. Surface antibodies were a combination of anti-CD3-BV650+ anti-CD8-PECy7 in combination with anti-CCR7-AF700+ anti-CD45RA-BUV395 when required. Finally, cells were washed twice and resuspended in FACS buffer for flow cytometry analysis.
The following step after binding validation to HLA-A2 allele, was to test the immunogenicity of predicted peptides. Priming assays were thus performed to test the ability of identified peptides to expand specific cytotoxic T cells. PBMCs from HLA-A2+ healthy donors were used to generate monocyte derived-DCs (moDCs). After loading the moDCs with a mix of synthetic peptides, autologous co-culture was performed with CD4+ and CD8+ T cells. Finally, the expansion of specific CD8+ T cells was analysed by flow cytometry using two-colours tetramer staining. As a control of specific expansion, the co-culture was performed in the absence of peptides.

[2] = test system: CD8+ T cells from tumor, juxta tumor, lymph nodes and blood of LUAD patients; test: Tetramer staining of TILs and CD8+ T cells from LUAD patient samples; assay type: cell-based, human; settings: TILs from LUAD patients expanded with peptide mix + IL-2 or IL-2 only
Description: In experiments addressed to evaluate the presence of specific CD8+ T cells, the tetramerization step was performed by incubating the monomers with different combinations of fluorescent streptavidin (PE, APC, PE-Cy5, PE-CF594, BV421, BV711 and FITC).
as §1, with “analysis. […]” for “analysis.”
Tumor infiltrating lymphocytes (TILs) cultures. […] Cells were feed/split as necessary during 15-20 days and cryopreserve or analyzed for tetramer staining.
In a first set of experiments tumor infiltrating lymphocytes (TILs) expanded with a mix of TE-derived peptides and Il-2, or only with Il-2, were analyzed by tetramer staining. […]
In a second cohort of 5 primary, untreated, LUAD tumor, juxta-tumor, tumor-draining lymph node and blood samples from LUAD cancer HLA-A2+ patients were analyzed. […]

For AILPKANTV, the “expansion of specific CD8+ T cells (tetramer positive)” value (“expansion of specific CD8+ T cells” for short) [1] was “expand specific CD8+ T cells” and the “specific CD8+ T expansions (immunogenicity)” value [1] was “specific CD8+ T expansions”.
With AMDGKELSL the “specific CD8+ T expansions (immunogenicity)” value [1] was “specific CD8+ T expansions”.
In the case of FLGTRVTRV, the “specific CD8+ T expansions (immunogenicity)” value [1] is reported as “specific CD8+ T expansions”.
FLIVAEILI was tested, and the “expansion of specific CD8+ T cells” value [1] was “expand specific CD8+ T cells”.
In the case of GLLNISHTA, the “specific CD8+ T expansions (immunogenicity)” value [1] is reported as “specific CD8+ T expansions”.
With GLPSHVELA the “tetramer positive CD8+ T cells in TILs” value [2] was “TILs recognizing” and the “specific CD8+ T expansions (immunogenicity)” value [1] was “specific CD8+ T expansions; also recorded: immunogenic”.
In the case of ILHSLVTGV, the “specific CD8+ T expansions (immunogenicity)” value [1] is reported as “specific CD8+ T expansions”.
With ILSGYGPCV the “specific CD8+ T expansions (immunogenicity)” value [1] was “specific CD8+ T expansions”.
ILTASITSI was tested, and the “specific CD8+ T expansions (immunogenicity)” value [1] was “specific CD8+ T expansions”.
With LLDRFGYHV the “specific CD8+ T expansions (immunogenicity)” value [1] was “specific CD8+ T expansions”.
In the case of LLGETKVYV, the “expansion of specific CD8+ T cells” value [1] is reported as “expand specific CD8+ T cells” and the “specific CD8+ T expansions (immunogenicity)” value [1] is reported as “specific CD8+ T expansions”.
For LLHLESFLV, the “specific CD8+ T expansions (immunogenicity)” value [1] was “specific CD8+ T expansions”.
With LLTSWHLYL the “specific CD8+ T expansions (immunogenicity)” value [1] was “specific CD8+ T expansions”.
MLMKTVWQA was tested, and the “specific CD8+ T expansions (immunogenicity)” value [1] was “specific CD8+ T expansions”.
With MLVTWELAL the “specific CD8+ T expansions (immunogenicity)” value [1] was “specific CD8+ T expansions”.
In the case of RLADHLSFC, the “expansion of specific CD8+ T cells” value [1] is reported as “expand specific CD8+ T cells” and the “specific CD8+ T expansions (immunogenicity)” value [1] is reported as “specific CD8+ T expansions; also recorded: immunogenic”.
RLLHLESFL was tested, and the “expansion of specific CD8+ T cells” value [1] was “expand specific CD8+ T cells” and the “specific CD8+ T expansions (immunogenicity)” value [1] was “specific CD8+ T expansions”.
For RQAPGFHHA, the “specific CD8+ T expansions (immunogenicity)” value [1] was “specific CD8+ T expansions”.
In the case of SLMQSGSPV, the “specific CD8+ T expansions (immunogenicity)” value [1] is reported as “specific CD8+ T expansions”.
With VLLTNTIWL the “specific CD8+ T expansions (immunogenicity)” value [1] was “specific CD8+ T expansions”.
In the case of VLMWTMAHL, the “specific CD8+ T expansions (immunogenicity)” value [1] is reported as “specific CD8+ T expansions”.
For YLPYFLKSL, the “specific CD8+ T expansions (immunogenicity)” value [1] was “specific CD8+ T expansions”.
YLQGLPLPL was tested, and the “specific CD8+ T expansions (immunogenicity)” value [1] was “specific CD8+ T expansions”.
With YLWTTFFPL the “expansion of specific CD8+ T cells” value [1] was “expand specific CD8+ T cells” and the “specific CD8+ T expansions (immunogenicity)” value [1] was “specific CD8+ T expansions”.

— US20250302929A1, “TUMOR NEOANTIGENIC PEPTIDES” (INSTITUT CURIE, priority 2021, published 2025)
